As a reminder, the IC50 is the point on the concentration scale where inhibition reaches its midpoint.

This is an account of results in BindingDB's records for doi:10.1016/j.bmcl.2010.05.078 (University of Arizona, 2010).

Assay [1] deals with Melanocortin receptor 4 (Homo sapiens, UniProt P32245). In words: Displacement of Eu-NDP-alphaMSH from human MC4 receptor expressed in human HEK293 cells.
Assay [2] can be described thus: Agonist activity at mu opioid receptor in guinea pig ileum assessed as inhibition of electrically-stimulated muscle contraction.

Chain of Melanocortin receptor 4 (P32245 whole entry): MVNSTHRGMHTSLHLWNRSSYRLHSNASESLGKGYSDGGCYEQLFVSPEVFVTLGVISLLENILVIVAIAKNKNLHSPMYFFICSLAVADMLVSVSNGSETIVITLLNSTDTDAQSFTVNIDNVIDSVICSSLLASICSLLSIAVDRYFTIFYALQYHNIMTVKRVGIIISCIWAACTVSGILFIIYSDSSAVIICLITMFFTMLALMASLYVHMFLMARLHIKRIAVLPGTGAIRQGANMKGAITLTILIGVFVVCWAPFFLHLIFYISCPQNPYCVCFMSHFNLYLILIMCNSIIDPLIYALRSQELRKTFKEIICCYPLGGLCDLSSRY

Turning to `CCCC[C@H](NC(=O)[C@H](Cc1c[nH]c2ccccc12)NC(=O)[C@H](CCCN=C(N)N)NC(=O)[C@@H](Cc1ccc2ccccc2c1)NC(=O)[C@H](Cc1cnc[nH]1)NC(=O)[C@H](Cc1ccccc1)NC(=O)[C@@H](C)NC(=O)[C@@H](N)Cc1ccc(O)cc1)C(=O)N[C@@H](CC(=O)O)C(=O)N[C@@H](Cc1ccccc1)C(N)=O` [(3S,6S,9S,12S,15R,18S,21S,24R,27S)-18-((1H-imidazol-5-yl)methyl)-9-((1H-indol-3-yl)methyl)-27-amino-3-((S)-1-amino-1-oxo-3-phenylpropan-2-ylcarbamoyl)-21-benzyl-6-butyl-12-(3-guanidinopropyl)-28-(4-hydroxyphenyl)-24-methyl-15-(naphthalen-2-ylmethyl)-5,8,11,14,17,20,23,26-octaoxo-4,7,10,13,16,19,22,25-octaazaoctacosan-1-oic acid], the IC50 in assay [1] was determined as 631 nM.
As to `Cc1cc(O)cc(C)c1C[C@H](N)C(=O)N1CC(=O)N[C@@H](Cc2cnc[nH]2)C(=O)N[C@H](Cc2ccccc2)C(=O)N[C@@H](CCCN=C(N)N)C(=O)N[C@@H](Cc2c[nH]c3ccccc23)C(=O)N[C@H](C(=O)N[C@@H](CC(=O)O)C(=O)N[C@@H](Cc2ccccc2)C(N)=O)CSSC[C@@H](N)C1=O` [(S)-3-((4R,7S,10S,13R,16S,22S)-16-((1H-imidazol-5-yl)methyl)-7-((1H-indol-3-yl)methyl)-22-amino-20-((S)-2-amino-3-(4-hydroxy-2,6-dimethylphenyl)propanoyl)-13-benzyl-10-(3-guanidinopropyl)-6,9,12,15,18,21-hexaoxo-1,2-dithia-5,8,11,14,17,20-hexaazacyclotricosane-4-carboxamido)-4-((S)-1-amino-1-oxo-3-phenylpropan-2-ylamino)-4-oxobutanoic acid], in assay [2], the IC50 came out at 190 nM.
